The test has as its system T1, GH18 chitinase from Curtobacterium sp. GD1 (carbohydrate binding protein, CBP).
T1 construct: native secreted enzyme, partially purified from chitin-induced culture supernatant (two major bands); 429 aa precursor, predicted 31 aa signal peptide removed; genome has 3 GH18 genes
As to the kind of experiment: colorimetric p-nitrophenol release at […] nm, Lineweaver-Burk. It counts as biochemical. The note with it: 100 mmol/L sodium phosphate pH 7.0, 37 °C, partially purified enzyme; substrate range 3-90 mmol/L; substrate of the Km not restated beside the value; unit printed as mmol (mmol/L presumably meant).

In the case of `CC(=O)N[C@H]1[C@H](Oc2ccc([N+](=O)[O-])cc2)O[C@H](CO)[C@@H](O[C@@H]2O[C@H](CO)[C@@H](O[C@@H]3O[C@H](CO)[C@@H](O)[C@H](O)[C@H]3NC(C)=O)[C@H](O)[C@H]2NC(C)=O)[C@@H]1O` [p-nitrophenyl-β-D-N,N’,N”-triacetylchitotriose], the Km is listed as 10 mmol.

The values above are taken from article PMC8565777, “The chitinolytic activity of the Curtobacterium sp. isolated from field-grown soybean and analysis of its genome sequence” (PLoS ONE, 2021).
